From PubChem BioAssay (NCI)
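Compound exposure: 48 hours, 5 concentrations, 96-well plates. TGI: concentration producing complete growth inhibition.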

Legend:
Test in all cases: DTP human tumour cell line panel, 48 h
[1] = test system: SK-MEL-28 melanoma
[2] = test system: NCI-H226 lung
[3] = test system: A498 renal
[4] = test system: U251 CNS
[5] = test system: LOX IMVI melanoma
[6] = test system: M14 melanoma
[7] = test system: K-562 leukemia
[8] = test system: HL-60(TB) leukemia
[9] = test system: DLD-1 colon
[10] = test system: DMS 273 small cell lung
[11] = test system: KM20L2 colon
[12] = test system: DMS 114 small cell lung

| SMILES | TGI [1] [µM] | TGI [2] [µM] | TGI [3] [µM] | TGI [4] [µM] | TGI [5] [µM] | TGI [6] [µM] | TGI [7] [µM] | TGI [8] [µM] | TGI [9] [µM] | TGI [10] [µM] | TGI [11] [µM] | TGI [12] [µM] |
| --- | --- | --- | --- | --- | --- | --- | --- | --- | --- | --- | --- | --- |
| OCCNCNc1nc(NCNCCO)nc(N(CNCCO)CNCCO)n1 | 52.6 | 47.1 | 62 | 43.7 | 40.2 | 36.6 | 50.3 | 63.8 | – | – | – | – |
| CN(C)c1nc(Cl)c2c(-c3ccccc3)c(-c3ccccc3)oc2n1 | > 100 | > 100 | > 100 | > 100 | > 100 | > 100 | > 100 | 36 | – | – | – | – |
| C=C(C)[C@@H]1CCC2=C[C@H](OC2=O)[C@@]2(C)C[C@@H]2C2=CC(C)=C(O2)[C@H]1O | > 75 | > 75 | > 75 | > 75 | > 75 | > 75 | > 75 | > 75 | – | – | – | – |
| COC(=O)c1ccccc1C1CN=NC12Cc1cc(C)ccc1C2=O (stereo not drawn) | > 100 | > 100 | > 100 | > 100 | > 100 | > 100 | > 100 | > 100 | – | – | – | – |
| COC(=O)c1c2cccccc-2c(Cc2c3cccccc-3c(C(=O)OC)c2O)c1O | > 100 | > 100 | > 100 | > 100 | > 100 | > 100 | > 100 | > 100 | > 100 | > 100 | > 100 | > 100 |
| COC(=O)C(CCSC)NC(=O)Cc1ccc(C(=O)c2ccccc2)cc1 (stereo not drawn) | > 100 | > 100 | > 100 | > 100 | > 100 | > 100 | > 100 | > 100 | – | – | – | – |
| CCCCn1c2c(n(CCCC)c1=S)-c1c(n(CCCC)c(=S)n1CCCC)SSc1c(n(CCCC)c(=S)n1CCCC)-c1c(n(CCCC)c(=S)n1CCCC)SSc1c(n(CCCC)c(=S)n1CCCC)-c1c(n(CCCC)c(=S)n1CCCC)SS2 | > 50 | > 38.4 | > 50 | > 50 | 13.3 | > 50 | > 50 | 4.46 | – | – | – | – |
| C=C(Br)CNC(=O)CCC(=O)NCC(=C)Br | > 100 | > 100 | > 100 | > 100 | > 100 | > 100 | > 100 | > 100 | – | – | – | – |
| CCOC(=O)CCC(NC(=O)c1ccc(OCc2ccc3nc(-c4ccccc4)c(Cl)nc3c2)cc1)C(=O)OCC (stereo not drawn) | > 31.6 | 68.8 | 77.4 | > 31.6 | > 100 | > 31.6 | > 100 | > 31.6 | – | – | – | – |
| CCCCCCCCCCNC(=O)CCC(NC(=O)c1ccc(N(C)Cc2cnc3nc(N)nc(N)c3n2)cc1)C(=O)NCCCCCCCCCC (stereo not drawn) | 23.6 | 59.3 | 73.5 | 14.1 | 5.81 | 57.7 | > 32.2 | > 25.3 | – | – | – | – |
| O=C1C(c2c(O)[nH]c3ccc(Br)cc23)=Nc2ccccc21 | > 100 | 34.3 | 14.1 | 26.2 | 25.8 | 32.4 | > 100 | > 100 | – | – | – | – |
| CO/N=C(\C)CCC#Cc1ccccc1C(=O)OC | > 10 | > 10 | > 10 | > 10 | > 10 | > 10 | > 10 | > 10 | – | – | – | – |
| CC(=O)O[C@H]1C(=O)[C@@]2(C)C(C(OC(=O)c3ccccc3)C3[C@@H](O)C(OC(=O)[C@@H](O)[C@H](NC(=O)c4ccccc4)c4ccc(C(F)(F)F)cc4)C(C)=C1C3(C)C)[C@]1(OC(C)=O)CO[C@@H]1C[C@@H]2O (stereo partly drawn) | > 25 | > 25 | – | > 25 | > 25 | > 25 | > 25 | > 25 | > 25 | > 25 | > 25 | > 25 |
| CCC(C#N)NCc1cccc(CNC(C#N)CC)c1 (stereo not drawn) | > 100 | > 100 | > 100 | > 100 | > 100 | 31.4 | > 100 | > 100 | – | – | – | – |
| Cn1c2ccccc2c(=O)c2cccc(C(=O)NC(CCC(N)=O)C(=O)O)c21 (stereo not drawn) | > 100 | > 100 | > 100 | > 100 | > 100 | > 100 | > 100 | 0.678 | – | – | – | – |
| N#Cc1cnc(N)nc1NCC1(CO)CC(CCc2ccccc2)C1 (stereo not drawn) | > 100 | > 100 | > 100 | > 100 | > 100 | > 100 | > 100 | > 100 | – | – | – | – |
| O=C1C(Cl)=C(Nc2ccc(S(=O)(=O)Nc3ccccn3)cc2)C(=O)c2ccccc21 | 42.9 | 42.1 | 45.1 | 19.3 | 4.59 | 15.4 | 16.5 | > 50.5 | – | – | – | – |
